{"source": "ChEMBL document CHEMBL5226355", "about": "“Design and Synthesis of Indenoisoquinolines Targeting Topoisomerase I and Other Biological Macromolecules for Cancer Chemotherapy” (J Med Chem, 2021)", "key": {"KB [1]": {"test_system": "KB", "assay": "Cytotoxicity against human KB cells", "type": "functional, cell-based"}, "KB [2]": {"test_system": "KB", "assay": "Cytotoxicity against FR-knockdown human KB cells", "type": "functional, cell-based"}, "Leishmania infantum [3]": {"test_system": "Leishmania infantum", "assay": "Antileishmanial activity against Leishmania infantum promastigotes BCN150", "type": "functional, organism-based"}, "Leishmania infantum [4]": {"test_system": "Leishmania infantum", "assay": "Antileishmanial activity against Leishmania infantum promastigote infected in BALB/c mouse assessed as reduction in parasite burden in spleen at 2.5 mg/kg, iv administered once every other day for 15 days", "type": "functional", "parameters": "scale not given: the % may be the effect or the level left", "conditions": "time 15 day"}, "Leishmania infantum [5]": {"test_system": "Leishmania infantum", "assay": "Antileishmanial activity against Leishmania infantum promastigote infected in BALB/c mouse assessed as reduction in parasite burden in liver at 2.5 mg/kg, iv administered once every other day for 15 days", "type": "functional", "parameters": "scale not given: the % may be the effect or the level left", "conditions": "time 15 day"}}}
{"compound": "CCOC(c1ccc(COCC(=O)NCCOCCOCCOCCOCCOCCNC(=O)CC[C@H](NC(=O)c2ccc(NCc3cnc4nc(N)nc(O)c4n3)cc2)C(=O)O)cc1OC)n1cnc(CCn2c3c(c4ccccc4c2=O)C(=O)c2ccccc2-3)c1", "note": "(some centres not stated)", "values": [{"measurement": "IC50", "setting": "KB [1]", "result": 60, "unit": "µM"}, {"measurement": "IC50", "setting": "KB [2]", "result": 655, "unit": "µM"}]}
{"compound": "COc1cc2c3c(n(CCCN4CCOCC4)c(=O)c2cc1OC)-c1cc2c(cc1C3=O)OCO2", "note": "[INDOTECAN]", "values": [{"measurement": "IC50", "setting": "Leishmania infantum [3]", "result": 0.1, "unit": "µM"}]}
{"compound": "CC[C@@]1(O)C(=O)OCc2c1cc1n(c2=O)Cc2cc3ccccc3nc2-1", "note": "[CAMPTOTHECIN]", "values": [{"measurement": "IC50", "setting": "Leishmania infantum [3]", "result": 1.12, "unit": "µM"}]}
{"compound": "O=C1c2ccccc2-c2c1c1ccc([N+](=O)[O-])cc1c(=O)n2CCCN1CCOCC1", "values": [{"measurement": "Activity", "setting": "Leishmania infantum [4]", "result": ">80", "unit": "%"}, {"measurement": "Activity", "setting": "Leishmania infantum [5]", "result": ">80", "unit": "%"}]}
{"compound": "NC[C@@H]1O[C@H](O[C@H]2[C@@H](O)[C@H](O[C@@H]3[C@@H](O)[C@H](N)C[C@H](N)[C@H]3O[C@H]3O[C@H](CO)[C@@H](O)[C@H](O)[C@H]3N)O[C@@H]2CO)[C@H](N)[C@@H](O)[C@@H]1O", "note": "[PAROMOMYCIN]", "values": [{"measurement": "IC50", "setting": "Leishmania infantum [3]", "result": 42.4, "unit": "µM"}]}
